Laboratory results as given in patent US6784174B1, “Pyridine and pyrimidine derivatives and their use as inhibitors of cytokine mediated disease” (AstraZeneca AB, priority 1999, dated 2004).

biological target: T1, p38α (Homo sapiens, UniProt Q16539); assay: In vitro enzyme assay, p38 kinase (p38α isoform); assay type: biochemical
T1 construct: c-myc (N); 6His (N); made in house; host or cells: E. coli (PET vectors)
Protocol: The ability of compounds of the invention to inhibit the enzyme p38 kinase was assessed. Activity of particular test compounds against each of the p38α and p38β isoforms of the enzyme was determined.
Human recombinant MKK6 (GenBank Accesion Number G1209672) was isolated from Image clone 45578 (Genomics, 1996, 33, 151) and utilised to produce protein in the form of a GST fusion protein in a pGEX vector using analogous procedures to those disclosed by J. Han et al., Journal of Biological Chemistry, 1996, 271, 2886-2891. p38α (GenBank Accession Number G529039) and p38β (GenBank Accession Number G1469305) were isolated by PCR amplification of human lymphoblastoid cDNA (GenBank Accession Number GM1416) and human foetal brain cDNA [synthesised from mRNA (Clontech, catalogue no. 6525-1) using a Gibco superscript cDNA synthesis kit] respectively using oligonucleotides designed for the 5′ and 3′ ends of the human p38α and p38β genes using analogous procedures to those described by J. Han et al., Biochimica et Biophysica Acta, 1995, 126, 224-227 and Y. Jiang et al., Journal of Biological Chemistry, 1996, 271, 17920-17926.
Both p38 protein isoforms were expressed in e coli in PET vectors. Human recombinant p38α and p38β isoforms were produced as 5′ c-myc, 6His tagged proteins. Both MKK6 and the p38 proteins were purified using standard protocols: the GST MKK6 was purified using a glutathione sepharose column and the p38 proteins were purified using nickel chelate columns.
The p38 enzymes were activated prior to use by incubation with MKK6 for 3 hours at 30° C. The unactivated coli-expressed MKK6 retained sufficient activity to fully activate both isoforms of p38. The activation incubate comprised p38α (10 μl of 10 mg/ml) or p38β (10 μl of 5 mg/ml) together with MKK6 (10 μl of 1 mg/ml), ‘Kinase buffer’ [100 μl; pH 7.4 buffer comprising Tris (50 mM), EGTA (0.1 mM), sodium orthovanadate (0.1 mM) and β-mercaptoethanol (0.1%)] and MgATP (30 μl of 50 mM Mg(OCOCH3)2 and 0.5 mM ATP). This produced enough activated p38 enzyme for 3 Microtiter plates.
Test compounds were solubilised in DMSO and 10 μl of a 1:10 diluted sample in ‘Kinase Buffer’ was added to a well in a Microtiter plate. […] The precipitated protein was phosphorylated by p38 kinase and test compounds were assessed for their ability to inhibit this phosphorylation. The plates were filtered using a Canberra Packard Unifilter and washed with 2% TCA, dried overnight and counted on a Top Count scintillation counter.
Test compounds were tested initially at a single dose and active compounds were retested to allow IC50 values to be determined.

T1 sequence (Q16539 whole entry, canonical isoform): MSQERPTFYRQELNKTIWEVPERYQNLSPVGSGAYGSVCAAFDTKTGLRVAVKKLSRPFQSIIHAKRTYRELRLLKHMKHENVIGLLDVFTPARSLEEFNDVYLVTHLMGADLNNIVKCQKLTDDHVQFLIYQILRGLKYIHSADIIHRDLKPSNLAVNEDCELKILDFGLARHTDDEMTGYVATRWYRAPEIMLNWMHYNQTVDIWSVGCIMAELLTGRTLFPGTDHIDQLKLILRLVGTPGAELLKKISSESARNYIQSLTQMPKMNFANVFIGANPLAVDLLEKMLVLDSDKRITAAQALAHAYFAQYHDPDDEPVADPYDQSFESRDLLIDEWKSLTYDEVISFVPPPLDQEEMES

| IC50 [nM] | Compound |
| --- | --- |
| 40 | Cc1ccc(NC(=O)c2ccnc(N3CCOCC3)c2)cc1Nc1ncnc2c(C)csc12 [3(1)] |
| 70 | Cc1ccc(NC(=O)c2ccnc(N3CCOCC3)c2)cc1Nc1ncnc2sccc12 [3(2)] |
| 340 | Cc1ccc(NC(=O)c2ccnc(N3CCOCC3)c2)cc1Nc1ncnc2scc(C)c12 [Example 2, 4-[2-Methyl-5-(2-morpholinopyridine-4-carboxamido)anilino]-5-methylthieno[2,3-d]pyrimidine] |
| 60 | Cc1ccc(NC(=O)c2ccnc(N3CCOCC3)c2)cc1Nc1ncnc2ccsc12 [Example 1, 4-[2-Methyl-5-(2-morpholinopyridine-4-carboxamido)anilino]thieno[3,2-d]pyrimidine] |
